Laboratory results from PMC11133798, “Vosoritide treatment for children with hypochondroplasia: a phase 2 trial” (eClinicalMedicine, 2024).

Tests used:
[1] = tested on: children with hypochondroplasia; assay: Phase 2 trial secondary outcomes: bone age, sitting height ratio, arm span minus height; format: in vivo, human
Description: (§1) Secondary outcomes included the change in body proportions as measured by sitting height to standing height ratio and arm span minus standing height, as well as the change in bone age to chronological age ratio after 12 months of therapy. Sitting height was measured three times at each visit using a sitting height table. The average of the three values was used. Sitting height to standing height ratio and arm span minus standing height were standardized for age and sex using available reference data and SDS were calculated.[11]^,[12] Bone age X-rays were read by a single reviewer who was blinded to participant ID, age and time point. Exploratory endpoints included pharmacokinetic parameters, pharmacodynamic markers including collagen X biomarker (CXM) levels and urine cGMP production, and changes in quality of life as measured by the QoLISSY scale.[13] CXM levels in serum were measured in duplicate via an ELISA assay at the Shriners Hospitals for Children in Portland, Oregon as previously described.[14] The average of the two values was used for analysis. Urine samples were obtained for cGMP measurement at baseline and 60, 120, and 240 min after vosoritide injections at the Day 1, Month 6 and Month 12 visits. cGMP levels were assayed at ICON Laboratories (Farmingdale, NY) and were normalized to urine creatinine levels at each time point.
(§2) No formal power calculations were done for this proof of principle study. Sample size was determined based on logistical feasibility. Medication adherence was calculated using the number of returned empty vials divided by the number of days of prescribed therapy. Demographics and clinical characteristics were summarized with mean and standard deviation (SD), median and interquartile (IQR) for numerical variables, frequency and proportion for categorical variables. Primary and secondary clinical outcomes were summarized with mean (SD) for the 6-month observation period and the 12-month treatment period. Paired t-tests were carried out to compare the difference between the treatment and observation periods. The corresponding p-value and 95% confidence interval (CI) were reported. Box and whisker plots were used for both primary endpoints (annualized growth velocity and height SDS) and exploratory endpoints (CXM and cGMP) to visualize the trends for the change from baseline to each of the follow-up visits. Safety data (AEs) were summarized as count and percentage of patients as well as the number of total occurrences per each listed AE for the observation period and the treatment period, respectively. As exploratory analyses, the primary endpoints were stratified based on age, baseline growth velocity and baseline height SDS. The summaries of mean (SD) for each visit, mean differences between treatment and observation periods, and the corresponding p-value and 95% CI were all reported. Parent reported quality of life using the QoLISSY scale was also reported with a similar tabular format. Data were analyzed using SAS for Windows version 9.4 (SAS Institute Inc., Cary, NC). A two-sided test with a significance level of 0.05 was used for all hypothesis tests.

[2] = tested on: collagen X biomarker (CXM); assay: Serum collagen X biomarker (CXM) by ELISA; format: in vivo, human
Description: as §1

[3] = tested on: urine cGMP; assay: Urine cGMP after vosoritide injection, normalized to urine creatinine; format: in vivo, human
Description: as §1

[4] = tested on: children with hypochondroplasia; assay: Parent-reported quality of life, QoLISSY scale; format: in vivo, human
Description: as §1, §2

[5] = tested on: children with achondroplasia; conditions: cited from earlier work
Description: Vosoritide is a c-type natriuretic peptide (CNP) analog that upon binding its receptor on chondrocytes inhibits the mitogen-activated protein kinase (MAPK) pathway. This pathway is downstream of FGFR3 and is activated in hypochondroplasia and achondroplasia. […] Based on this study and additional trials, vosoritide has now been approved in numerous countries for use in children ... || The standing height SDS increased by 0.37 SD during the year of treatment or 0.41 SD using hypochondroplasia specific growth charts. This is slightly greater than the 0.27 SD increase seen in the Phase 3 study of children with achondroplasia. In prior studies with children with achondroplasia, the increase in growth velocity and gains in height SDS have persisted over multiple years.[16]^,[17] Participants in the current study with positive responses to therapy have been enrolled in an ongoing extension study to assess if this will be true in hypochondroplasia as well. It is reassuring that th ...

[6] = tested on: rat chondrosarcoma cells transfected with FGFR3 containing the hypochondroplasia mutation; conditions: addition of vosoritide; similar to achondroplasia mutation; n=3; ref unpublished BioMarin data; cited from earlier work
Description: The rationale for using vosoritide in hypochondroplasia is primarily an extension of the positive clinical trial results in patients with achondroplasia, a more severe perturbation of the same gen ...

[7] = tested on: patients with achondroplasia; conditions: cited from earlier work

Sequence: PGQEHPNARKYKGANKKGLSKGCFGLKLDRIGSMSGLGC (disulfide) [vosoritide]
- Bone age, Month 12 ([1]; 15 μg/kg/day SC, mean (SD), Day 1 61.42 (30.40), single blinded reader, SD): 71.58 (32.17) months
- Bone age, change during treatment period ([1]; Day 1 to Month 12, mean (95% CI), p<0.0001): 10.17 (7.03, 13.31) months
- Bone age/chronological age, change during treatment period ([1]; Day 1 to Month 12, mean (95% CI), p=0.67): 0.01 (−0.03, 0.05)
- Sitting height ratio unadjusted, change during treatment period ([1]; Day 1 to Month 12, mean (95% CI), observation period −0.001 (−0.003, 0.001)): −0.009 (−0.01, −0.006)
- Arm span minus height unadjusted, change during treatment period ([1]; Day 1 to Month 12, mean (95% CI), observation period −0.66 (−1.72, 0.40)): −0.76 (−1.55, 0.04)
- Bone age/chronological age, Month 12 ([1]; mean (SD), Day 1 0.78 (0.14), SD): 0.79 (0.15)
- Arm span minus height unadjusted, Month 12 ([1]; mean (SD), Day 1 −6.26 (2.83), protocol: measurements in centimeters, SD): −7.01 (3.21)
- Sitting height ratio unadjusted, Month 12 ([1]; sitting height/standing height, mean (SD), Day 1 0.63 (0.02), SD): 0.62 (0.02)
- CXM levels, Month 6 versus Month 12 visit ([2]; n=24, on treatment): no significant differences
- CXM, Month 12 ([2]; serum, ELISA in duplicate, 15 μg/kg/day SC, mean (SD), Day 1 22.48 (6.49), SD): 41.62 (15.86) ng/ml
- Average maximum cGMP increase from baseline across visits ([3]; Day 1, Month 6, Month 12 compared): not significantly different at Day 1, Month 6 or Month 12
- Time of peak urine cGMP after administration ([3]; samples at baseline, 60, 120 and 240 min after injection): 2 h
- Time to evident increase in urine cGMP after administration ([3]; samples at baseline, 60, 120 and 240 min after injection, Day 1, Month 6, Month 12): ≤ 1 h
- Overall or domain specific parental-reported quality of life (QoLISSY) ([4]; 12 months of treatment): no significant changes
- QoLISSY Coping, change during treatment period ([4]; mean, 95% CI (-7.29, 3.75), p=0.51): -1.77
- QoLISSY Belief, change during treatment period ([4]; mean, 95% CI (-9.30, 10.39), p=0.91): 0.54
- QoLISSY Physical, change during treatment period ([4]; mean, 95% CI (-10.25, 7.47), p=0.75): -1.39
- QoLISSY Total (Social, Emotional, Coping), change during treatment period ([4]; mean, 95% CI (-10.55, 4.09), p=0.37): -3.23
- QoLISSY Emotional, change during treatment period ([4]; mean, 95% CI (-12.12, 3.01), p=0.23): -4.56
- QoLISSY Social, change during treatment period ([4]; mean, 95% CI (-12.43, 4.96), p=0.38): -3.74
- QoLISSY Total (Social, Emotional, Coping), Month 6 ([4]; parent-reported, mean, SD (16.08), Day 1 60.33 (18.99)): 61.73
- QoLISSY Treatment, Month 12 ([4]; parent-reported, mean, SD (16.43)): 38.23
- QoLISSY Total (Social, Emotional, Coping), Month 12 ([4]; parent-reported, mean, SD (17.99)): 57.10
- QoLISSY Treatment, Month 6 ([4]; parent-reported, mean, SD (18.36)): 37.86
- QoLISSY Emotional, Month 12 ([4]; parent-reported, mean, SD (18.44)): 62.37
- QoLISSY Coping, Month 12 ([4]; parent-reported, mean, SD (18.71)): 35.79
- QoLISSY Physical, Month 6 ([4]; parent-reported, mean, SD (18.77), Day 1 52.60 (18.22)): 55.38
- QoLISSY Social, Month 6 ([4]; parent-reported, mean, SD (19.50), Day 1 61.46 (21.05)): 61.20
- QoLISSY Physical, Month 12 ([4]; parent-reported, mean, SD (20.09)): 51.22
- QoLISSY Emotional, Month 6 ([4]; parent-reported, mean, SD (20.12), Day 1 66.93 (22.25)): 68.62
- QoLISSY Social, Month 12 ([4]; parent-reported, mean, SD (20.40)): 57.72
- QoLISSY Coping, Month 6 ([4]; parent-reported, mean, SD (20.45), Day 1 38.14 (19.61)): 35.61
- QoLISSY Belief, Month 12 ([4]; parent-reported, mean, SD (22.98)): 66.93
- QoLISSY Belief, Month 6 ([4]; parent-reported, mean, SD (29.10), Day 1 65.22 (28.63)): 62.23
- Adjusted mean difference in annualized growth velocity ([5]; Phase 3, placebo-controlled, children with achondroplasia, 15 μg/kg/day): 1.57 cm/year
- Increase in standing height SDS ([5]; Phase 3 study of children with achondroplasia): 0.27 SD
- ERK1/2 activation [6]: decrease ERK1/2 activation
- Mean gain in height standard deviation score ([7]; achondroplasia, 15 µg/kg, after 42 months of intervention, ref 2 (protocol list)): 1.03 SD
- Efficacy of 15 µg/kg/day dose versus 30 µg/kg/day dose ([7]; annualized growth velocity, Phase II achondroplasia, ref 2 (protocol list)): equally efficacious to the 30 µg/kg/day dose
- Symptomatic hypotensive episode ([7]; in vivo): a single patient
